Like-named read-outs stand apart in the source and are kept apart here.
How the values were obtained:
[1] = tested on: RS4;11 (BCL-2 dependent acute lymphoblastic leukemia cell line); assay: RS4;11 cell proliferation assay; assay type: cell-based; details: CellTiter-GLO, read-out: Cellular proliferation assay (IC50, nM) RS4
Method: RS4;11 Cell Proliferation Assay:
Each compound was serially diluted with 1 μM as the maximum concentration. To test the apoptotic effect of the compounds, the cells were seeded at 50,000 in 180 μl per well in 96-well plates and treated with 10-point dilution series of each compound for 48 hrs at 37° C. Cell viability was assessed after the treatment using CellTiter-GLO luminescent assay (Promega) according to the manufacturer's recommendations. Briefly, 30 μl of CellTiter-GLO reagent was added into 200 μl of cell culture, Mixture was agitated on an orbital shaker for 5 mins to ensure cell lysis followed by 7 mins incubation at room temperature to allow development and stabilization of luminescent signals, which corresponded to quantity of ATP and thus the quantity of metabolically active cells. Luminescent signals were measured using PHERAstar FS reader (BMG). Mean IC50 values for cell viability were determined with GraphPad Prism software.

[2] = tested on: Molt-4 (Bcl-xL-dependent ALL cell line); assay: Molt-4 cell proliferation assay; assay type: cell-based; details: Homo sapiens, MOLT-4; CellTiter-GLO; read-out: Cellular proliferation assay (IC50, nM) Molt-4
Text: Molt-4 Cell Proliferation Assay:
Each compound was serially diluted with 10 1M as the maximum concentration. The anti-proliferative IC50s of these compounds were similarly determined as a percentage of viable cells upon treatment compared to the untreated control using CellTiter-GLO luminescent assay.

BA/F3-BCL-2 G101V cells = BA/F3-BCL-2 G101V cells (Homo sapiens, UniProt P10415, G101V, cells depend on it); assay: BA/F3 cell proliferation assay, Bcl-2 G101V; assay type: cell-based, Murine; details: 24 hrs treatment, 3% FBS, CellTiter-Glo, geometric mean of 3 experiments; read-out: Cellular proliferation assay (IC50, nM) Bcl-2 G101V; BaF3 cell
Method: (§1) BA/F3 cell Proliferation Assay:
(§2) The cells were treated with a 10-point dilution series of compounds for 24 hrs. After the compound treatment, 30 μl of CellTiter-Glo reagent was added in each well. The effects on proliferation were determined using Cell TiterGlo reagent (Promega) according to the manufacturer's instructions. Luminescent signals were measured using PHERAstar FS plate reader (BMG Labtech). ICS50 values for cell viability were determined with GraphPad Prism software and were the geometric mean of 3 independent experiments.

BA/F3-BCL-2 cells = BA/F3-BCL-2 cells (Homo sapiens, UniProt P10415); assay: BA/F3 cell proliferation assay, BCL-2 wild type; assay type: cell-based, Murine
Method: as §1, §2

[3] = target: Recombinant human Bcl-2 protein (Homo sapiens, UniProt P10415); assay: Bcl-2 TR-FRET assay; assay type: binding
Method: Compounds disclosed herein were tested for blocking of Bcl-2 protein with its ligand in an assay based on Time-Resolved Fluorescence Resonance Energy Transfer (TR-FRET) methodology. Recombinant human 0.05 nM Bcl-2 protein was pre-incubated with a serial dilution of compounds disclosed herein (top final concentration is 1 uM or 0.1 uM or 0.02 uM or 0.01 uM, 10 points) at room temperature for 0.5 hour in an assay buffer containing 20 mM potassium phosphate buffer, pH 7.5, 50 mM NaCl, 1 mM EDTA, 0.05% Tween-20, 0.01% BSA. […] The inhibition percentage of Bcl-2 interaction with its ligand in presence of increasing concentrations of compounds was calculated based on the TR-FRET signals. The IC50 for each compound was derived from fitting the data to the four-parameter logistic equation by Graphpad Prism software or Dotmatics.

[4] = target: recombinant human Bcl-2-G101V protein (Homo sapiens, UniProt P10415, G101V); assay: Bcl-2-G101V TR-FRET assay; assay type: binding
Text: The IC50 for each compound was derived from fitting the data to the four-parameter logistic equation by Graphpad Prism software or Dotmatics.

[5] = Homo sapiens, RS4-11, 48 hrs treatment
[6] = 24 hrs treatment, 3% FBS, CellTiter-Glo, geometric mean of 3 experiments; read-out: Cellular proliferation assay (IC50, nM) Bcl-2 WT; BaF3 cell
[7] = TR-FRET, 0.05 nM Bcl-2, FITC labeled Bak peptide 0.5 nM, read-out: Biochemical assay (IC50, nM) Bcl-2 WT
[8] = TR-FRET, 0.1 nM Bcl-2-G101V, FITC labeled Bak peptide 5 nM, read-out: Biochemical assay (IC50, nM) Bcl-2 G101V

| Structure (SMILES) | IC50 [1, 5] | IC50 [2] | GI50 (BA/F3-BCL-2 G101V cells) | IC50 (BA/F3-BCL-2 cells; read-out: Cellular proliferation assay (IC50, nM) Bcl-2 WT; BaF3 cell; 24 hrs treatment, 3% FBS, CellTiter-Glo, geometric mean of 3 experiments) | IC50 [3] | IC50 [4] | IC50 (BA/F3-BCL-2 cells; [6]) | IC50 [3, 7] | IC50 [4, 8] | IC50 ([1]; 48 hrs treatment) |
| --- | --- | --- | --- | --- | --- | --- | --- | --- | --- | --- |
| CC1(C)CCC(CN2CCN(c3ccc(C(=O)NS(=O)(=O)c4ccc(NCC5CCOCC5)c([N+](=O)[O-])c4)c(Oc4cnc5[nH]ccc5c4)c3)CC2)=C(c2ccc(Cl)cc2)C1 [ABT-199, Venetoclax, reference compound] | 4.2 nM | 2570 nM | – | – | – | – | – | – | – | – |
| [2H]C1([2H])CC2(CC(N3CCC[C@H]3c3ccccc3C(C)C)C2)CC([2H])([2H])N1c1ccc(C(=O)NS(=O)(=O)c2cc3c(c([N+](=O)[O-])c2)N[C@H](C[C@H]2CC[C@H](O)CC2)CO3)c(Oc2cnc3[nH]ccc3c2)c1 [Example A6, 2-((1H-pyrrolo[2,3-b]pyridin-5-yl)oxy)-N—(((R)-3-(((1r,4R)-4-hydroxycyclohexyl)methyl)-5-nitro-3,4-dihydro-2H-benzo[b][1,4]oxazin-7-yl)sulfonyl)-4-(2-((S)-2-(2-isopropylphenyl)pyrrolidin-1-yl)-7-azaspiro[3,5]nonan-7-yl-6,6,8,8-d4)benzamide] | 1.3 nM | – | 21.1 nM | 0.25 nM | 0.021 nM | 0.51 nM | – | – | – | – |
| [2H]C1([2H])CCC([2H])(c2ccccc2C(C)C)N1C1CC2(CCN(c3ccc(C(=O)NS(=O)(=O)c4cc5c(c([N+](=O)[O-])c4)N[C@H](C[C@H]4CC[C@H](O)CC4)CO5)c(Oc4cnc5[nH]ccc5c4)c3)CC2)C1 (stereo partly drawn) [Example A7, 2-((1H-pyrrolo[2,3-b]pyridin-5-yl)oxy)-N—(((R)-3-(((1r,4R)-4-hydroxycyclohexyl)methyl)-5-nitro-3,4-dihydro-2H-benzo[b][1,4]oxazin-7-yl)sulfonyl)-4-(2-(2-(2-isopropylphenyl)pyrrolidin-1-yl-2,5,5-d3)-7-azaspiro[3,5]nonan-7-v)benzamide] | 1.5 nM | – | 35.8 nM | – | – | – | 0.38 nM | 0.021 nM | 0.92 nM | – |
| CC(C)c1ccccc1[C@@H]1CCCN1C1CC2(CCN(c3ccc(C(=O)NS(=O)(=O)c4ccc(NCC5(F)CCOCC5)c([N+](=O)[O-])c4)c(N4CCOc5nc6[nH]ccc6cc54)c3)CC2)C1 [Example B4, (S)-2-(2,3-dihydropyrrolo[3′,2′:5,6]pyrido[2,3-b][1,4]oxazin-1(6H)-yl)-N-((4-(((4-fluorotetrahydro-2H-pyran-4-yl)methyl)amino)-3-nitrophenyl)sulfonyl)-4-(2-(2-(2-isopropylphenyl)pyrrolidin-1-yl)-7-azaspiro[3,5]nonan-7-yl)benzamide] | 0.58 nM | 1420 nM | – | – | – | – | – | 0.018 nM | 1.2 nM | – |
| CC(C)c1ccccc1[C@@H]1CCCN1C1CC2(CCN(c3ccc(C(=O)NS(=O)(=O)c4ccc(NC[C@H]5CC[C@](C)(O)CC5)c([N+](=O)[O-])c4)c(N4C[C@@H](C)Oc5nc6[nH]ccc6cc54)c3)CC2)C1 [Example B5, N-((4-((((1r,4r)-4-hydroxy-4-methylcyclohexyl)methyl)amino)-3-nitrophenyl)sulfonyl)-4-(2-((S)-2-(2-isopropylphenyl)pyrrolidin-1-yl)-7-azaspiro[3,5]nonan-7-yl)-2-((R)-3-methyl-2,3-dihydropyrrolo[3′,2′:5,6]pyrido[2,3-b][1,4]oxazin-1(6H)-yl)benzamide] | 1 nM | – | 8.9 nM | – | – | – | 0.13 nM | 0.025 nM | 1.1 nM | – |
| CC(C)c1ccccc1[C@@H]1CCCN1C1CC2(CCN(c3ccc(C(=O)NS(=O)(=O)c4ccc(NC[C@H]5CC[C@](C)(O)CC5)c([N+](=O)[O-])c4)c(N4C[C@H](C)Oc5nc6[nH]ccc6cc54)c3)CC2)C1 [Example B6, N-((4-((((1r,4r)-4-hydroxy-4-methylcyclohexyl)methyl)amino)-3-nitrophenyl)sulfonyl)-4-(2-((S)-2-(2-isopropylphenyl)pyrrolidin-1-yl)-7-azaspiro[3,5]nonan-7-yl)-2-((S)-3-methyl-2,3-dihydropyrrolo[3′,2′:5,6]pyrido[2,3-b][1,4]oxazin-1(6H)-yl)benzamide] | 0.34 nM | – | 31.9 nM | – | – | – | 1.1 nM | 0.027 nM | 1.2 nM | – |
| CC(C)c1ccccc1[C@@H]1CCCN1C1CC2(CCN(c3ccc(C(=O)NS(=O)(=O)c4cc5c(c([N+](=O)[O-])c4)N[C@H](C[C@H]4CC[C@H](O)CC4)CO5)c(N4C[C@@H](C)Oc5nc6[nH]ccc6cc54)c3)CC2)C1 [Example B7, N—(((R)-3-(((1r,4R)-4-hydroxycyclohexyl)methyl)-5-nitro-3,4-dihydro-2H-benzo[b][1,4]oxazin-7-yl)sulfonyl)-4-(2-((S)-2-(2-isopropylphenyl)pyrrolidin-1-yl)-7-azaspiro[3,5]nonan-7-yl)-2-((R)-3-methyl-2,3-dihydropyrrolo[3′,2′:5,6]pyrido[2,3-b][1,4]oxazin-1(6H)-yl)benzamide] | 0.8 nM | – | 11.2 nM | – | – | – | 0.18 nM | 0.048 nM | 1.5 nM | – |
| CC(C)c1ccccc1[C@@H]1CCCN1C1CC2(CCN(c3ccc(C(=O)NS(=O)(=O)c4cc5c(c([N+](=O)[O-])c4)N[C@H](CC4CCC(O)CC4)CO5)c(N4C[C@H](C)Oc5nc6[nH]ccc6cc54)c3)CC2)C1 (stereo partly drawn) [Example B8, N—(((R)-3-(((1r,4R)-4-hydroxycyclohexyl)methyl)-5-nitro-3,4-dihydro-2H-benzo[b][1,4]oxazin-7-yl)sulfonyl)-4-(2-((S)-2-(2-isopropylphenyl)pyrrolidin-1-yl)-7-azaspiro[3,5]nonan-7-yl)-2-((S)-3-methyl-2,3-dihydropyrrolo[3′,2′:5,6]pyrido[2,3-b][1,4]oxazin-1(6H)-yl)benzamide] | – | – | 41.2 nM | – | – | – | 0.65 nM | 0.055 nM | 3.3 nM | 0.7 nM |
| CC(C)c1ccccc1[C@@H]1CCCN1C1CC2(CCN(c3ccc(C(=O)NS(=O)(=O)c4cc5c(c([N+](=O)[O-])c4)N[C@H](C[C@H]4CC[C@H](O)CC4)CO5)c(N4CCCOc5nc6[nH]ccc6cc54)c3)CC2)C1 [Example B9, 2-(3,4-dihydro-2H-pyrrolo[3′,2′:5,6]pyrido[2,3-b][1,4]oxazepin-1(7H)-yl)-N—(((R)-3-(((1R,4R)-4-hydroxycyclohexyl)methyl)-5-nitro-3,4-dihydro-2H-benzo[b][1,4]oxazin-7-yl)sulfonyl)-4-(2-((S)-2-(2-isopropylphenyl)pyrrolidin-1-yl)-7-azaspiro[3,5]nonan-7-yl)benzamide] | 0.5 nM | – | 34.9 nM | – | – | – | 0.83 nM | 0.038 nM | 3.3 nM | – |
| CC(C)c1ccccc1[C@@H]1CCCN1C1CC2(CCN(c3ccc(C(=O)NS(=O)(=O)c4ccc(NC[C@H]5CC[C@](C)(O)CC5)c([N+](=O)[O-])c4)c(N4c5cc6cc[nH]c6nc5OCC4C)c3)CC2)C1 (stereo partly drawn) [Example B10, N-((4-((((1R,4R)-4-hydroxy-4-methylcyclohexyl)methyl)amino)-3-nitrophenyl)sulfonyl)-4-(2-((S)-2-(2-isopropylphenyl)pyrrolidin-1-yl)-7-azaspiro[3,5]nonan-7-yl)-2-(2-methyl-2,3-dihydropyrrolo[3′2′:5,6]pyrido[2,3-b][1,4]oxazin-1(6H)-yl)benzamide] | 1 nM | > 10000 nM | – | – | – | – | – | 0.04 nM | 1.6 nM | – |

— patent US12516053B2, “Bcl-2 inhibitors” (BEIGENE, LTD., priority 2019, dated 2026)
